Experimental data taken from PMC6010023, “Diethylalkylsulfonamido(4-methoxyphenyl)methyl)phosphonate/phosphonic acid derivatives act as acid phosphatase inhibitors: synthesis accompanied by experimental and molecular modeling assessments” (Journal of Enzyme Inhibition and Medicinal Chemistry, 2016).
Where two headings read alike, the source gives them in different places.

Molecular target: T1, red kidney bean PAP (rkbPAP) (Phaseolus vulgaris, UniProt P80366)
T1 construct: The rkbPAP was purified from red kidney bean according to the method described by Beck et al; from tissue; host or cells: red kidney bean seeds (Phaseolus vulgaris), local market
T1 sequence (P80366 23-459): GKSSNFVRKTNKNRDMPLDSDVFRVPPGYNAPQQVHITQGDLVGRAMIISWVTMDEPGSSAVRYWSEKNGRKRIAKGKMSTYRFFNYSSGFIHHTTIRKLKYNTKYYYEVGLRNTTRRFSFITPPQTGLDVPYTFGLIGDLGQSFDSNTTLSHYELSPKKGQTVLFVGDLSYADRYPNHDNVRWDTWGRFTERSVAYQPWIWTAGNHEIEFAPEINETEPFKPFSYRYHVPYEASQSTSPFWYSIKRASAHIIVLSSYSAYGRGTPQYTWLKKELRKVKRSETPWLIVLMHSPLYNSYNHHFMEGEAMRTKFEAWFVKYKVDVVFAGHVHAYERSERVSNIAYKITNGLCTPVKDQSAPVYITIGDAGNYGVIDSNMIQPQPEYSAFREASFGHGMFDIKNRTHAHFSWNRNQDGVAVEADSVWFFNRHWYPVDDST
Assay: rkbPAP inhibition assay with p-NPP as substrate
Assay type: biochemical
Conditions: for inhibition of PAP (in words) / Ki: pH 4.9; for inhibition mode: from Ki vs KI and Lineweaver–Burk plots
Text: PAP from red kidney bean (rkbPAP) was purified following a previously published protocol. Briefly, red kidney beans (Phaseolus vulgaris), provided from local market, were ground and suspended in 0.5 M sodium chloride solution. The suspension was filtered through a muslin cloth, followed by ethanol fractionation and ammonium sulfate precipitation. The purple enzyme solution was dialyzed against several changes of 0.25 M NaCl over a period of several days. The purple precipitate, which formed in the dialysis bag was collected by centrifugation. The resulting preparation stored at 4 °C in 0.5 M NaCl. The protein identity and purity was tested by SDS–polyacrylamide gel electrophoresis (SDS–PAGE) and by comparing with molecular weight protein markers, by loading the protein samples on a 12% slab gel. Protein concentration was determined by Lowry method.
Inhibition assays for rkbPAP was performed in 96-well multi-titer plates using a microplate reader. Kinetic measurements were taken at pH 4.9 (0.1 M sodium citrate buffer with 5% DMSO) at 25 °C using p-nitrophenyl phosphate (p-NPP) as the substrate at concentrations of 1, 2, 4, 6, 8, 10, 12, 14, 18 and 24 mM[29]. The hydrolysis of p-NPP by PAP produces p-nitrophenol (p-NP), which has a characteristic intense yellow color at 405 nm with […] [18]^,[26]. The concentration of enzyme used was ∼60 nM, while at least eight concentrations of each compound ranged from 50 to 2000 µM. The IC50 values obtained by “Dose–response inhibition/variable slopes” equation that was performed using GraphPad Prism version 5.00 for Windows (GraphPad Software, San Diego CA, www.graphpad.com). The experimental data are representative example of three independent experiments. In most cases, the standard deviations were almost within 5% of the experimental values, except for some inhibition data points where standard errors of means were within 10% of the measured values. p < .05 was considered statistically significant.
To determination of inhibition mode, the Michaelis–Menten constant (Km) and maximum velocity (Vmax) and inhibition constants (Ki and KI) values were obtained using Equation (1)[29]^,[30] in the presence of at least four concentrations of each compound which were selected from concentration–activity curves. The data were analyzed by nonlinear regression using the program GraphPad Prism (1) v=Vmax[S]/[S](1+[I]/KI)+Km(1+[I]/Ki) where Ki and KI are the equilibrium dissociation constants for competitive and uncompetitive inhibitor binding, respectively, while, v, [S] and [I] represent the rate of product formation, the substrate and the inhibitor concentration, respectively. […] If Ki < KI, the type of enzyme inhibition was defined as competitive-noncompetitive and if Ki > KI, the type of enzyme inhibition was defined as uncompetitive–noncompetitive. […] For better visual presentation of data of inhibition mode, the Lineweaver–Burk plots were also provided.

[1] = rkbPAP, pH 4.9, 25 °C, p-NPP substrate
[2] = KI, dissociation constant of enzyme–substrate–inhibitor complex (uncompetitive)
[3] = Ki, dissociation constant of enzyme–inhibitor complex (competitive)
[4] = dissociation constant of enzyme–inhibitor complex (competitive), read-out: Ki
[5] = dissociation constant of enzyme–substrate–inhibitor complex (uncompetitive), read-out: KI
[6] = rkbPAP, pH 4.9, 25 °C, p-NPP substrate, read-out: IC50

CCCCCCS(=O)(=O)NC(c1ccc(OC)cc1)P(=O)(OCC)OCC (stereo not drawn) [3a, Diethyl(hexylsulfonamido(4-methoxyphenyl)methyl)phosphonate]
inhibition of PAP (in words): negligible inhibitions of PAP, in millimolar range | IC50 [1]: Very weak inhibitor

CCCCCCCCS(=O)(=O)NC(c1ccc(OC)cc1)P(=O)(OCC)OCC (stereo not drawn) [3b, Diethyl((4-methoxyphenyl)(octylsulfonamido)methyl)phosphonate]
inhibition of PAP (in words): negligible inhibitions of PAP, in millimolar range | IC50 [1]: Very weak inhibitor

CCCCCCCCCCCCS(=O)(=O)NC(c1ccc(OC)cc1)P(=O)(OCC)OCC (stereo not drawn) [3c, Diethyl(dodecylsulfonamido(4-methoxyphenyl)methyl)phosphonate]
IC50: 759 µM | Ki [2]: 211 ± 8 µM | Ki [3]: 202 ± 11 µM | inhibition mode: noncompetitive inhibition

CCCCCCCCCCCCCCCCS(=O)(=O)NC(c1ccc(OC)cc1)P(=O)(OCC)OCC (stereo not drawn) [3d, Diethyl(hexadecylsulfonamido(4-methoxyphenyl)methyl)phosphonate]
IC50: 92 µM | Ki [2]: 36 ± 3 µM | Ki [3]: 13 ± 1 µM | inhibition mode: mixed manner

CCCCCCS(=O)(=O)NC(c1ccc(OC)cc1)P(=O)(O)O (stereo not drawn) [4a, (Hexylsulfonamido(4-methoxyphenyl)methyl)phosphonic acid]
inhibition of PAP (in words): negligible inhibitions of PAP, in millimolar range | IC50 [1]: Very weak inhibitor

CCCCCCCCS(=O)(=O)NC(c1ccc(OC)cc1)P(=O)(O)O (stereo not drawn) [4b, ((4-Methoxyphenyl)(octylsulfonamido)methyl)phosphonic acid]
inhibition of PAP (in words): negligible inhibitions of PAP, in millimolar range | IC50 [1]: Very weak inhibitor

CCCCCCCCCCCCS(=O)(=O)NC(c1ccc(OC)cc1)P(=O)(O)O (stereo not drawn) [4c, (Dodecylsulfonamido(4-methoxyphenyl)methyl)phosphonic acid]
Ki [4]: 95 ± 9 µM | Ki [5]: 103 ± 5 µM | inhibition mode: noncompetitive inhibition | IC50 [6]: 421 µM

CCCCCCCCCCCCCCCCS(=O)(=O)NC(c1ccc(OC)cc1)P(=O)(O)O (stereo not drawn) [4d, (Hexadecylsulfonamido(4-methoxyphenyl)methyl)phosphonic acid]
Ki [4]: 1.1 ± 0.2 µM | Ki [5]: 8.2 ± 1.4 µM | inhibition mode: mixed manner | IC50 [6]: 13 µM

O=C(O)C(O)C(O)C(=O)O (stereo not drawn) [Tartrate, reference compound]
Ki [4]: 783 ± 41 µM | inhibition of PAP (in words): weakly inhibited | IC50 [6]: 3310 µM
